Results on 14 molecules are retold here after patent publication US7626031B2, “Substituted 3-(diarylmethylene)indolin-2-ones and methods of their use” (Symphony Evolution, Inc., priority 2002, dated 2009).

SMILES strings stand for the structures.

One assay has as its target IRK (Homo sapiens, UniProt P06213). The experiment in a line: Kinase assay, IRK. Format: biochemical. As for the experimental part: (§1) Kinase activity and compound inhibition are investigated using one or more assay formats. The ATP concentrations for each assay are selected to be close to the Michaelis-Menten constant (KM) for each individual kinase. Dose-response experiments are performed at 10 different inhibitor concentrations in a 384-well plate format. […] Exemplary kinase assays are described below. KDR Assay

For another assay, the target named is FGFR1 (Homo sapiens, UniProt P11362). Kind of assay: Kinase assay, FGFR1 (33P-ATP incorporation or luciferase-coupled ATP consumption). The assay is classed as biochemical. The method in brief: (§2)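 Radiometric format: γ-33P ATP incorporation into plate-immobilized myelin basic protein, enzyme 10 nM or 20 nM, 10 μM or 30 μM unlabeled ATP, 1 h at room temperature, 1% DMSO, scintillation counting; alternatively luciferase-measured ATP consumption with pEY substrate. ATP set near each kinase's KM; 10-point dose-response.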

The target of another assay is EphA2 (Homo sapiens, UniProt P29317). The experiment in a line: Kinase assay, EphA2 (33P-ATP incorporation or luciferase-coupled ATP consumption). Format: biochemical. Summed up:
as §2

In a further assay the target is Fyn (Homo sapiens, UniProt P06241). The experiment in a line: Kinase assay, Fyn. The assay is classed as biochemical. As for the experimental part: as §1
Fyn, sequence (P06241 whole entry, species assumed): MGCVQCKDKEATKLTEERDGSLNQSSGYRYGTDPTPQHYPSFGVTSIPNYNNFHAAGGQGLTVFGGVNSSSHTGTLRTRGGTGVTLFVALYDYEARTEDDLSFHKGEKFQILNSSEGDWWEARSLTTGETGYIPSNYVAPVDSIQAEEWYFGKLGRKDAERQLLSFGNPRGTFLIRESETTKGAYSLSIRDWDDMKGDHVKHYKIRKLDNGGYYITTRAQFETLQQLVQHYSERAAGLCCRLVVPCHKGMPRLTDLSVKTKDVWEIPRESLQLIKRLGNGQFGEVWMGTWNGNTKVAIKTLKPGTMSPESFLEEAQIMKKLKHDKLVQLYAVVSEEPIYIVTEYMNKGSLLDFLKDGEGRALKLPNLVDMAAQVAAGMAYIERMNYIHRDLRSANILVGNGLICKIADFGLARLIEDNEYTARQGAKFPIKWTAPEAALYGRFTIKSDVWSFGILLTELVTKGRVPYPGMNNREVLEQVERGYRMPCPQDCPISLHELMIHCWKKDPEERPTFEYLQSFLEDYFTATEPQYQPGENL
A further assay addresses c-Kit kinase (Homo sapiens, UniProt P10721). Kind of assay: c-Kit AlphaScreen kinase assay. Format: biochemical. As for the experimental part: as §1
c-Kit biochemical activity was assessed using AlphaScreen™ (Perkin Elmer) technology, described above. Test compounds, ATP, biotinylated poly(Glu, Tyr) and c-Kit kinase were combined in a volume of 20 μL in a 384-well white, medium binding microtiter plate (Greiner). Reaction mixtures were incubated for 1 hr at ambient temperature. Reactions were quenched by addition of 10 uL of […] AlphaScreen bead suspension containing 75 mM Hepes, pH 7.4, 300 mM NaCl, 120 mM EDTA, 0.3% BSA and 0.03% Tween-20. After 16 hr incubation at ambient temperature plates were read using an AlphaQuest reader (Perkin Elmer).

A further assay has as its target EGFR (Homo sapiens, UniProt P00533). Kind of assay: Kinase assay, EGFR (33P-ATP incorporation or luciferase-coupled ATP consumption). Format: biochemical. Summed up:
as §2

The target in the next assay is PDGFR alpha (Homo sapiens, UniProt P16234). Kind of assay: Kinase assay, PDGFR alpha (33P-ATP incorporation or luciferase-coupled ATP consumption). Format: biochemical. Particulars: read-out: PDGF-R-A IC50. The method in brief: as §2
PDGFR alpha, sequence (P16234 24-1089): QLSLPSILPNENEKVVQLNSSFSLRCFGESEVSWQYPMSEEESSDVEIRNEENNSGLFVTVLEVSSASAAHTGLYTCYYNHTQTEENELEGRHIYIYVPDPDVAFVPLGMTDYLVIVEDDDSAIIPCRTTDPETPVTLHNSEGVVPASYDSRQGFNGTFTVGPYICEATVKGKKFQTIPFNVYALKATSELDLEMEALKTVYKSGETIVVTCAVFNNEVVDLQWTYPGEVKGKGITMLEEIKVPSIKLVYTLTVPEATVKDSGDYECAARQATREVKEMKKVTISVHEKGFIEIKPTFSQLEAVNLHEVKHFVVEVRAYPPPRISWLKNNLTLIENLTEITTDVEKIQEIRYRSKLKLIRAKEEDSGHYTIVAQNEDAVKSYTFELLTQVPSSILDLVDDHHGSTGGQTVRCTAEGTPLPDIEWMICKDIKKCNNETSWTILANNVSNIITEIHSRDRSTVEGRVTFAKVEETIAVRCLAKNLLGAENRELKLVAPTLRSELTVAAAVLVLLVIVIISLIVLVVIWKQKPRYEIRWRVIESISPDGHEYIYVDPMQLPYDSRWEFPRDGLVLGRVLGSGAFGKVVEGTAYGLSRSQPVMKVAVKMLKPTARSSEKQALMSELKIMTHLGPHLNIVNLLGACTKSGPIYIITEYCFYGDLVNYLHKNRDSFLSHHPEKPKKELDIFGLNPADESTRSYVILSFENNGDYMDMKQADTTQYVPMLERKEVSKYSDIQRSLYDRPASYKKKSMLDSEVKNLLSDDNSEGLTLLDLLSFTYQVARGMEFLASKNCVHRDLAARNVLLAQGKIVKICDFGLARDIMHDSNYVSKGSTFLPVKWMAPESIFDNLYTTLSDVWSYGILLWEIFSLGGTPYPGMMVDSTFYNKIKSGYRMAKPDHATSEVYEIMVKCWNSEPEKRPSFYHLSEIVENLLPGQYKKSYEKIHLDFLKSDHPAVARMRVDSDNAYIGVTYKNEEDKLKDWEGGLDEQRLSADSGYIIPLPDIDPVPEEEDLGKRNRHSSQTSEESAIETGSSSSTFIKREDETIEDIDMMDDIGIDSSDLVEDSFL
For assay [1], the target named is T1, KDR (baculovirus expressed human KDR kinase domain D807-V1356) (Homo sapiens, UniProt P35968).
T1 construct: human KDR kinase domain D807-V1356; host or cells: baculovirus expression system
T1 sequence (P35968 807-1356): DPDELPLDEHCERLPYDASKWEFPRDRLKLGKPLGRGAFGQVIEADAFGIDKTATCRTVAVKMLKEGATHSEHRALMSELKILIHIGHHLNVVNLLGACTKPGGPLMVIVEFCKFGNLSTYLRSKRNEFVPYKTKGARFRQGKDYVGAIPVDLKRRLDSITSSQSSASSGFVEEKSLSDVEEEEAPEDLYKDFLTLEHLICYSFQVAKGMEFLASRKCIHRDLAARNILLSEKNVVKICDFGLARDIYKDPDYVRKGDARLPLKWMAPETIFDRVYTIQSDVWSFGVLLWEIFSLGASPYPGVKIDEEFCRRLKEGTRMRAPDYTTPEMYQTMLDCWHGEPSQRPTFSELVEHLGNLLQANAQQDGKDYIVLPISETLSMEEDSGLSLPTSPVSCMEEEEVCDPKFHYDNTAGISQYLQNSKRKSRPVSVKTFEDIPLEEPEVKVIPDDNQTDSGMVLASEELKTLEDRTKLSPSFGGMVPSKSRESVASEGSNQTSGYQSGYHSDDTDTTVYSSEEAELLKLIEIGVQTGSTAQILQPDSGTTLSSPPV
The experiment in a line: biochemical. The method in brief:
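Luciferase-coupled chemiluminescence quantifies ATP left after a 4 h room-temperature reaction of KDR kinase domain (D807–V1356, baculovirus-expressed human). ATP set close to KM; inhibitors tested at 10 concentrations.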

The next assay concerns the target Flt-1 (Homo sapiens, UniProt P17948). Kind of assay: Kinase assay, Flt-1 (33P-ATP incorporation or luciferase-coupled ATP consumption). Format: biochemical. Particulars: read-out: Flt1 IC50. Summed up:
as §2

EphA2, sequence (P29317 24-976, species assumed): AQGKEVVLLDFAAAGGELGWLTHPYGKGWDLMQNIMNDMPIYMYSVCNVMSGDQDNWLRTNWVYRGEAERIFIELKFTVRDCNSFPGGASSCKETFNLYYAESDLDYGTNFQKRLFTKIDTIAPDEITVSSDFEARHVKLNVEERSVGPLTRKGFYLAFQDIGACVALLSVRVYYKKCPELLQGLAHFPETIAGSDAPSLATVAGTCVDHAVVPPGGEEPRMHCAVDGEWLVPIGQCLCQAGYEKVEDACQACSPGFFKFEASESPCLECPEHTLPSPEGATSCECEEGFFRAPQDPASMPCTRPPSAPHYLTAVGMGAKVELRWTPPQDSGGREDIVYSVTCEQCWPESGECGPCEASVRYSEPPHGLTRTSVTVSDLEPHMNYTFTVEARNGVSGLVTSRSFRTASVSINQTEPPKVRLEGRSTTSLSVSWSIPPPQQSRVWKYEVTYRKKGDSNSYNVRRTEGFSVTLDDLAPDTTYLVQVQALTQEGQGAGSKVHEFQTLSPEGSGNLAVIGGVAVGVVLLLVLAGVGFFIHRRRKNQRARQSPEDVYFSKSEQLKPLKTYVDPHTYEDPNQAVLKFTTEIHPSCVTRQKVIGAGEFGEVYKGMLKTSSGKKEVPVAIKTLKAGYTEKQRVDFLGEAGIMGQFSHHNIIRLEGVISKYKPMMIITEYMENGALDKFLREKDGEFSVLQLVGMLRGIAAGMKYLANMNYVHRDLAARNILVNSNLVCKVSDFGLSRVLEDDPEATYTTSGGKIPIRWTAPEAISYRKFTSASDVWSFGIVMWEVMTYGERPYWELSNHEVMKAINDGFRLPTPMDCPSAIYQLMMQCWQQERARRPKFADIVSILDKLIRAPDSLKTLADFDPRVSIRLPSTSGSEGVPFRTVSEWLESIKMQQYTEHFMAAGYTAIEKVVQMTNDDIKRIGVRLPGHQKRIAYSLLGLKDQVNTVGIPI
IRK, sequence (P06213 28-1382): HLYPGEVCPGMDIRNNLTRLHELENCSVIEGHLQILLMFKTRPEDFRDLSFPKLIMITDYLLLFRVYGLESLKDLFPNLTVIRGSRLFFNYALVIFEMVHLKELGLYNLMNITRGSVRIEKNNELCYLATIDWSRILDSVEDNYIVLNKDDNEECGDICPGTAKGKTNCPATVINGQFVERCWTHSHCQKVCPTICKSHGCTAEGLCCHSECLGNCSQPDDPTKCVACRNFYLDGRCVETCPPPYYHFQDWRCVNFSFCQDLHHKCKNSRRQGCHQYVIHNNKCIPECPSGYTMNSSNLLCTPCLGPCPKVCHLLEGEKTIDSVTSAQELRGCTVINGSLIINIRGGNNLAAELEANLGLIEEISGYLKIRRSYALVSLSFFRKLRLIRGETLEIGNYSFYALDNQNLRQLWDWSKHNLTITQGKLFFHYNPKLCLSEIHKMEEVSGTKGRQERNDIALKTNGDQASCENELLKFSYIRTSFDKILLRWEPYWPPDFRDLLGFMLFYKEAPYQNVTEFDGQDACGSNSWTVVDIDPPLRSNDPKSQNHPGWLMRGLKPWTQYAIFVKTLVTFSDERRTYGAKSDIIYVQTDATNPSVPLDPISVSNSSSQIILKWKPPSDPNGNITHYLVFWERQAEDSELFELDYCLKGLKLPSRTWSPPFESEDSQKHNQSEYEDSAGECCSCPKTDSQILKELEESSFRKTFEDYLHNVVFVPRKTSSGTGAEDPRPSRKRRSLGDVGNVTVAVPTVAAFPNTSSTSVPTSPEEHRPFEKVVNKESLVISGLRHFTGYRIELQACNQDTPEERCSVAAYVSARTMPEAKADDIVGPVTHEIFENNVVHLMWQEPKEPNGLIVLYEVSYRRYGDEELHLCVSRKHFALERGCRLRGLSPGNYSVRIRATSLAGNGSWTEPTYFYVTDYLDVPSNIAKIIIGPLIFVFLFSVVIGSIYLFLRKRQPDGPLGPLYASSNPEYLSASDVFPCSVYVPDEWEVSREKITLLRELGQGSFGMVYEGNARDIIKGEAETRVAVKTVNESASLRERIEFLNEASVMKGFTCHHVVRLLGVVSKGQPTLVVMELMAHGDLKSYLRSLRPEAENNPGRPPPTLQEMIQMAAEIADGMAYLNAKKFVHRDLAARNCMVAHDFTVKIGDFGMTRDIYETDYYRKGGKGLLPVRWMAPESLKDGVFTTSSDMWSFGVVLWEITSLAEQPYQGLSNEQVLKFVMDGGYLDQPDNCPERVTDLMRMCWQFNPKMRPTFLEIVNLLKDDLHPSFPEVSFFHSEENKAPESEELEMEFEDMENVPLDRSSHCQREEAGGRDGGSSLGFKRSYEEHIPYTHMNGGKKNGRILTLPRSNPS

For `CCN1CCC(Nc2ccc3c(c2)/C(=C(\c2ccc(C(F)(F)F)cc2)c2nc(C)c[nH]2)C(=O)N3)CC1` [Entry 101], the IC50 on IRK is 500 to 5000 nM; on FGFR1, below 50 nM; against EphA2 it was 500 to 5000 nM; on Fyn, below 50 nM; at c-Kit kinase, 50 to 500 nM; against EGFR, 50 to 500 nM. The IC50 (at PDGFR alpha; in [1]) was below 50 nM throughout.

On to `CCN1CCC(Nc2ccc3c(c2)/C(=C(\c2ccc(F)c(Cl)c2)c2ncc[nH]2)C(=O)N3)CC1` [Entry 53, (3Z)-3-[(3-chloro-4-fluorophenyl) (1H-imidazol-2-yl)methylidene]-5-[(1-ethylpiperidin-4-yl)amino]-1,3-dihydro-2H-indol-2-one], for which the IC50 on IRK is above 5000 nM; at FGFR1, below 50 nM; against EphA2, 500 to 5000 nM; on Fyn, below 50 nM; at c-Kit kinase it was below 50 nM; on EGFR, 500 to 5000 nM. Besides, the IC50 (at PDGFR alpha; in [1]) was below 50 nM each time.

Regarding `CCN1CCC(Nc2ccc3c(c2)/C(=C(/c2nc(C)c[nH]2)c2ccc(C(F)(F)F)cc2F)C(=O)N3)CC1` [Entry 108, (3Z)-5-[(1-ethylpiperidin-4-yl)amino]-3-[[2-fluoro-4-(trifluoromethyl)phenyl] (4-methyl-1H-imidazol-2-yl)methylidene]-1,3-dihydro-2H-indol-2-one], the IC50 against IRK was 500 to 5000 nM; on FGFR1 it was below 50 nM; at EphA2, 500 to 5000 nM; against Fyn, below 50 nM; at c-Kit kinase, below 50 nM; against EGFR, 50 to 500 nM. In addition, the IC50 (on PDGFR alpha; in assay [1]) was below 50 nM throughout.

In the case of `CCN1CCC(Nc2ccc3c(c2)/C(=C(/c2ncc[nH]2)c2ccccc2F)C(=O)N3)CC1` [Entry 107, (3Z)-5-[(1-ethylpiperidin-4-yl)amino]-3-[(2-fluorophenyl)(1H-imidazol-2-yl)methylidene]-1,3-dihydro-2H-indol-2-one], the IC50 is 500 to 5000 nM at IRK; below 50 nM on FGFR1; 500 to 5000 nM on EphA2; below 50 nM at Fyn; below 50 nM at c-Kit kinase; 50 to 500 nM against EGFR. In addition, the IC50 (at PDGFR alpha; in [1]) was below 50 nM each time.

Regarding `CCN1CCC(Nc2ccc3c(c2)/C(=C(\c2ccc(F)c(F)c2)c2nc(C)c[nH]2)C(=O)N3)CC1` [Entry 104, (3Z)-3-[(3,4-difluorophenyl)(4-methyl-1H-imidazol-2-yl)methylidene]-5-[(1-ethylpiperidin-4-yl)amino]-1,3-dihydro-2H-indol-2-one], the IC50 at IRK is above 5000 nM; against FGFR1, below 50 nM; at EphA2, 500 to 5000 nM; at Fyn it was below 50 nM; on c-Kit kinase, 50 to 500 nM; against EGFR it was below 50 nM. In addition, the IC50 (on PDGFR alpha; in assay [1]) was below 50 nM in each case.

Regarding `CCN1CCC(Nc2ccc3c(c2)/C(=C(/c2ncc[nH]2)c2ccc(F)cc2F)C(=O)N3)CC1` [Entry 112, (3Z)-3-[(2,4-difluorophenyl)(1H-imidazol-2-yl)methylidene]-5-[(1-ethylpiperidin-4-yl)amino]-1,3-dihydro-2H-indol-2-one], the IC50 at IRK is 500 to 5000 nM; against FGFR1, below 50 nM; on EphA2 it was 500 to 5000 nM; against Fyn it was below 50 nM; at c-Kit kinase, below 50 nM; against EGFR, 50 to 500 nM. The IC50 (on PDGFR alpha; in assay [1]) was below 50 nM throughout.

As for `CCN1CCC(Nc2ccc3c(c2)/C(=C(\c2ccc(F)c(F)c2)c2ncc[nH]2)C(=O)N3)CC1` [Entry 54, (3Z)-3-[(3,4-difluorophenyl)(1H-imidazol-2-yl)methylidene]-5-[(1-ethylpiperidin-4-yl)amino]-1,3-dihydro-2H-indol-2-one], the IC50 was above 5000 nM at IRK; below 50 nM against FGFR1; 500 to 5000 nM against EphA2; below 50 nM on Fyn; 50 to 500 nM at c-Kit kinase; 500 to 5000 nM against EGFR. Besides, the IC50 (at PDGFR alpha; in assay [1]) was below 50 nM each time.

On to `CCN1CCC(Nc2ccc3c(c2)/C(=C(\c2ccc(C(F)(F)F)c(F)c2)c2ncc[nH]2)C(=O)N3)CC1` [Entry 65, (3Z)-5-[(1-ethylpiperidin-4-yl)amino]-3-[[3-fluoro-4-(trifluoromethyl)phenyl](1H-imidazol-2-yl)methylidene]-1,3-dihydro-2H-indol-2-one], for which the IC50 is above 5000 nM against IRK; below 50 nM against FGFR1; 500 to 5000 nM on EphA2; below 50 nM against Fyn; 50 to 500 nM against c-Kit kinase; 50 to 500 nM against EGFR. Also, the IC50 (on PDGFR alpha; in assay [1]) was below 50 nM in each case.

Turning to `COCCN1CCC(Nc2ccc3c(c2)/C(=C(\c2ccccc2)c2nc4ccccc4[nH]2)C(=O)N3)CC1` [Entry 24, (3Z)-3-[1H-benzimidazol-2-yl(phenyl)methylidene]-5-({1-[2-(methyloxy)ethyl]piperidin-4-yl}amino)-1,3-dihydro-2H-indol-2-one], the concentration for half-maximal inhibition (IC50) was 500 to 5000 nM on IRK; 500 to 5000 nM against EphA2; below 50 nM on Fyn; below 50 nM against c-Kit kinase; 50 to 500 nM against EGFR.

As to `CCN1CCC(Nc2ccc3c(c2)/C(=C(/c2ncc[nH]2)c2cccc(F)c2F)C(=O)N3)CC1` [Entry 109, (3Z)-3-[(2,3-difluorophenyl)(1H-imidazol-2-yl)methylidene]-5-[(1-ethylpiperidin-4-yl)amino]-1,3-dihydro-2H-indol-2-one], the IC50 against IRK was 500 to 5000 nM; on FGFR1, below 50 nM; against EphA2, 500 to 5000 nM; on Fyn it was below 50 nM; on c-Kit kinase, below 50 nM; against EGFR, 50 to 500 nM. The IC50 (at PDGFR alpha; in assay [1]) was below 50 nM each time.

For the molecule `CCN1CCC(Nc2ccc3c(c2)/C(=C(\c2cccc(C(F)(F)F)c2)c2ncc[nH]2)C(=O)N3)CC1` [Entry 114, (3Z)-3-[(3-trifluoromethylphenyl)(1H-imidazol-2-yl)methylidene]-5-[(1-ethylpiperidin-4-yl)amino]-1,3-dihydro-2H-indol-2-one], the IC50 against IRK is above 5000 nM; against FGFR1 it was 50 to 500 nM; at EphA2 it was 500 to 5000 nM; at Fyn, 50 to 500 nM; against c-Kit kinase, 50 to 500 nM; against EGFR, 500 to 5000 nM. For the same molecule, the IC50 (at PDGFR alpha; in assay [1]) was below 50 nM throughout.

Take `CCN1CCC(Nc2ccc3c(c2)/C(=C(\c2ccc(F)cc2)c2nc(C)c[nH]2)C(=O)N3)CC1` [Entry 106, (3Z)-5-[(1-ethylpiperidin-4-yl)amino]-3-[(4-fluorophenyl)(4-methyl-1H-imidazol-2-yl)methylidene]-1,3-dihydro-2H-indol-2-one]: the IC50 is 500 to 5000 nM on IRK; 50 to 500 nM on FGFR1; 500 to 5000 nM against EphA2; below 50 nM against Fyn; 50 to 500 nM on c-Kit kinase; 50 to 500 nM at EGFR. Also, the IC50 (at PDGFR alpha; in assay [1]) was below 50 nM each time.

Consider `CCN1CCC(Oc2ccc3c(c2)/C(=C(\c2cccc(Cl)c2)c2nc4ccccc4[nH]2)C(=O)N3)CC1` [Entry 35, (3Z)-3-[1H-benzimidazol-2-yl(3-chlorophenyl)methylidene]-5-[(1-ethylpiperidin-4-yl)oxy]-1,3-dihydro-2H-indol-2-one], for which the IC50 against IRK was 500 to 5000 nM; against FGFR1, below 50 nM; against EphA2, 500 to 5000 nM; at Fyn it was below 50 nM; on Flt-1, 50 to 500 nM; at EGFR, 500 to 5000 nM. Moreover, the IC50 (at PDGFR alpha; in assay [1]) was below 50 nM each time.

`CCN1CCC(Nc2ccc3c(c2)/C(=C(\c2ccc(C(F)(F)F)c(F)c2)c2nc(C)c[nH]2)C(=O)N3)CC1` [Entry 103, (3Z)-5-[(1-ethylpiperidin-4-yl)amino]-3-[[3-fluoro-4-(trifluoromethyl)phenyl](4-methyl-1H-imidazol-2-yl)methylidene]-1,3-dihydro-2H-indol-2-one]: the IC50 on IRK was 500 to 5000 nM; on FGFR1, below 50 nM; against EphA2, 500 to 5000 nM; at Fyn, below 50 nM; at c-Kit kinase it was 50 to 500 nM; on EGFR it was below 50 nM. Also, in assay [1], the IC50 was below 50 nM.
